From patent US12428406B2 (PMV Pharmaceuticals, Inc., priority 2019, dated 2025) come the findings set out here.

The test deals with T1, p53 Y220C (Homo sapiens, UniProt P04637, Y220C).
T1 construct: The recombinant protein was a truncation mutant containing only amino acids 94-312 of p53; made in house; host or cells: E. coli
T1 sequence (P04637 94-312, change not shown): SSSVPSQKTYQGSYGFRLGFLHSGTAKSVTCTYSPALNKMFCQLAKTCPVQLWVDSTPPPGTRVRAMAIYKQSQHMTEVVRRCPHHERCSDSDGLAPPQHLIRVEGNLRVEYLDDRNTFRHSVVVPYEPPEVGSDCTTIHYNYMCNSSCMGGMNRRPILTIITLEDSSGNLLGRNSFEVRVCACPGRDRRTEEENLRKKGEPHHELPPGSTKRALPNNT
In words: In vitro DNA binding activity assay (HTRF / TR-FRET): stabilization of p53 Y220C and increase of its DNA binding activity. Conditions: recombinant His-tagged p53 Y220C DNA binding domain (aa 94-312), biotin-labeled consensus DNA, incubated at 27° C. or 29° C. for 60 min. It counts as biochemical. As to the method:
The ability of a compound of the invention to stabilize p53 Y220C and increase the DNA binding activity of p53 Y220C was measured by a homogeneous time-resolved fluorescence (HTRF) assay. Recombinant His-tagged p53 Y220C used in the HTRF assay was expressed in the bacterium E. coli.
The binding of the recombinant His-tagged p53 Y220C protein and the biotin-labeled consensus DNA was measured using fluorescence resonance energy transfer (FRET). For the FRET assay, the binding between the p53 mutant and the DNA sequence was measured by detecting the fluorescence of the interaction between an anti-His antibody conjugated to allophycocyanin (APC) and streptavidin conjugated to europium to detect the biotin-labeled DNA.
The test compounds were prepared as 4.5 mM stock solutions in dimethyl sulfoxide (DMSO). The compounds of the disclosure were used to test the stabilization of p53 Y220C and increase in DNA binding activity of p53 Y220C. The stock solutions were then serially diluted 3-fold in DMSO, and 1.2 μL of the diluted solutions was added to each well of a 384-well polypropylene black plate.
The test and control samples were spun at 1200 rpm for 1 minute and incubated at room temperature for 15 minutes. […] The plates were spun at 1200 rpm for 1 minute and incubated at room temperature for 20 minutes. The assay signals were monitored by reading excitation at 340 nm, and emission fluorescence at 615 nm and 665 nm on a plate reader.
The percentage of activation of protein DNA binding in the presence of a compound of the invention compared to the absence of the compound was denoted by a SC150 value, which indicated the concentration of the compound required to increase the DNA binding activity by 50%. The SC150 values were calculated using either Prism™ or ActivityBase™.
Turning to `COCC(O)CN1CCC(Nc2cccc3c2cc(C#CCNc2ccc(S(N)(=O)=O)cc2OC)n3CC(F)(F)F)CC1` (centres unmarked) [Compound 574A, 4-{[3-(4-{[1-(2-hydroxy-3-methoxypropyl)piperidin-4-yl]amino}-1-(2,2,2-trifluoroethyl)-1H-indol-2-yl)prop-2-yn-1-yl]amino}-3-methoxybenzene-1-sulfonamide], the “SC150 (concentration of the compound required to increase the DNA binding activity by 50%)” value is “+ (+ = 0 μM ≤ SC150 < 0.05 μM)”.

Turning to `COCCN(CCOC)[C@H]1CC[C@H](Nc2cccc3c2cc(C#CCNc2ccc(S(N)(=O)=O)cc2OCF)n3CC(F)(F)F)CC1` [Compound 166A, 3-(fluoromethoxy)-4-{[3-(4-{[(1R,4R)-4-[bis(2-methoxyethyl)amino]cyclohexyl]amino}-1-(2,2,2-trifluoro-ethyl)-1H-indol-2-yl)prop-2-yn-1-yl]amino} benzene-1-sulfonamide], the “SC150 (concentration of the compound required to increase the DNA binding activity by 50%)” value is reported as “+ (+ = 0 μM ≤ SC150 < 0.05 μM)”.

With `COC(=O)c1ccc(NCC#Cc2cc3c(N[C@H]4CCN(CC(N)=O)C[C@H]4F)cccc3n2CC(F)(F)F)c(OC)c1` [Compound 915A, methyl 4-{[3-(4-{[(3R,4S)-1-(carbamoylmethyl)-3-fluoropiperidin-4-yl]amino}-1-(2,2,2-trifluoroethyl)-1H-indol-2-yl)prop-2-yn-1-yl]amino}-3-methoxybenzoate], the “SC150 (concentration of the compound required to increase the DNA binding activity by 50%)” value is “+ (+ = 0 μM ≤ SC150 < 0.05 μM)”.

With `COc1cc(S(C)(=O)=O)ccc1NCC#Cc1cc2c(N[C@H]3CC[C@@H](N4CC5(COC5)C4)CC3)cccc2n1CC(F)(F)F` [Compound 203A, 2-{3-[(4-methanesulfonyl-2-methoxyphenyl)amino]prop-1-yn-1-yl}-N-[(1S,4S)-4-{2-oxa-6-azaspiro[3.3]heptan-6-yl}cyclohexyl]-1-(2,2,2-trifluoroethyl)-1H-indol-4-amine], the “SC150 (concentration of the compound required to increase the DNA binding activity by 50%)” value is given as “+ (+ = 0 μM ≤ SC150 < 0.05 μM)”.

As to `CN(C)c1cc(S(C)(=O)=O)ccc1OCC#Cc1cc2c(N[C@H]3CC[C@@H](N(C)C)CC3)cccc2n1CC(F)(F)F` [Compound 111A, (1S,4S)-N^4-(2-{3-[2-(dimethylamino)-4-methanesulfonyl-phenoxy]prop-1-yn-1-yl}-1-(2,2,2-trifluoroethyl)-1H-indol-4-yl)-N^1,N^1-dimethylcyclohexane-1,4-diamine], the “SC150 (concentration of the compound required to increase the DNA binding activity by 50%)” value is given as “++++ (++++ = 0.2 μM ≤ SC150 < 1 μM)”.

For `COc1cc(S(N)(=O)=O)ccc1NCC#Cc1cc2c(N[C@@H]3CCN(C[C@H](COC(C)=O)OC(C)=O)C[C@@H]3F)cccc2n1CC(F)(F)F` (racemic) [Compound 799A, (2R)-1-(acetyloxy)-3-[(3RS,4SR)-3-fluoro-4-[(2-{3-[(2-methoxy-4-sulfamoylphenyl)amino]prop-1-yn-1-yl}-1-(2,2,2-trifluoroethyl)-1H-indol-4-yl)amino]piperidin-1-yl]propan-2-yl acetate], the “SC150 (concentration of the compound required to increase the DNA binding activity by 50%)” value is “+ (+ = 0 μM ≤ SC150 < 0.05 μM)”.

As to `COc1cc(S(=O)(=O)N(C)CCO)ccc1NCC#Cc1cc2c(NC3CCN(C)CC3)cccc2n1CC(F)(F)F` [Compound 472A, N-(2-hydroxyethyl)-3-methoxy-N-methyl-4-[(3-{4-[(1-methylpiperidin-4-yl)amino]-1-(2,2,2-trifluoroethyl)-1H-indol-2-yl}prop-2-yn-1-yl)amino]benzene-1-sulfonamide], the “SC150 (concentration of the compound required to increase the DNA binding activity by 50%)” value is “+ (+ = 0 μM ≤ SC150 < 0.05 μM)”.

Consider `CCC(=O)OC(C)CN1CCC(Nc2cccc3c2cc(C#CCNc2ccc(S(N)(=O)=O)cc2OC)n3CC(F)(F)F)CC1` (centres unmarked) [Compound 605A, 1-{4-[(2-{3-[(2-methoxy-4-sulfamoylphenyl)amino]prop-1-yn-1-yl}-1-(2,2,2-trifluoroethyl)-1H-indol-4-yl)amino]piperidin-1-yl} propan-2-yl propanoate], for which the “SC150 (concentration of the compound required to increase the DNA binding activity by 50%)” value is given as “+ (+ = 0 μM ≤ SC150 < 0.05 μM)”.
